According to patent US20030139331A1, “Treatment of cancer by reduction of intracellular energy and pyrimidines” (priority 2000, published 2003):
“Also recorded” adds a separate entry of the source.

Assays:
[1] = tested on: first passage CD8F1 advanced spontaneous breast tumors; test: in vivo; conditions: for Regressions/Survivors: partial tumor regressions; for effect on tumor growth / anticancer activity (in words): advanced CD8F1 breast tumors in mice; for partial tumor regression (P.R.) rate: three pooled published experiments, MMPR, 6-AN, PALA alone and combined, P.R. = 50% or more tumor shrinkage, three courses, 1-week interval
Source text: (§1) Table 1 evaluates Saline-treated controls (Group 1), 6-AN (Group 2) and DDP (Group 3) as single agents, and in combination (Group 4), against 1st generation subcutaneous solid tumor transplants of advanced CD8F, spontaneous breast tumors. In the same experiment (i.e., same tumor transplants), is a group adding 6-AN to PALA and MMPR (MAP, Group 5), as well as a group with MAP administered prior to DDP (Group 6).
(§2) Each experiment is from a different brei (i.e., each from a different group of 3-4 spontaneous tumors) and, therefore, each transplant group contained a different number of chemotherapeutically sensitive and/or resistant tumor cells.

[2] = tested on: murine breast cancers, colon tumors and leukemia, and human breast cancer xenografts; test: MAP plus anticancer agents in advanced tumor-bearing mice with a variety of tumor types; format: in vivo; conditions: MAP co-administered with the named anticancer agent
Method: Summary of Preclinical Therapeutic Results with MAP+Cancer Chemotherapy—MAP+each of nine mechanistically-different apoptosis-inducing anticancer agents was administered to advanced tumor-bearing mice with a variety of tumor types (murine breast cancers, colon tumors and leukemia, and human breast cancer xenografts).

mouse lymphoma cells = conditions: in vitro; cited from earlier work
in vivo = conditions: CD8F1, mouse, in vivo
Source text: as §1, §2

[3] = tested on: MDA-MB 468 human breast cancer xenografts; test: Taxotere with MAP or MAPAL in MDA-MB-468 human breast cancer xenografts; format: in vivo; conditions: for PR (partial tumor regression): CR included in PR rate; for (CR) complete tumor regression: included in PR rate; for % Partial Regressions: tumors averaged 100 mg at initiation, label subscript = mg/kg
Source text: Table 2 presents results one month after completing a q 2 week×3 schedule with Taxotere (TXT40 or TXT20; subscript=mg/kg), initiated in mice (10/grp) with subcutaneous advanced (100+mg) MDA-MB 468 breast cancer xenografts, are as follows: […]

[4] = tested on: human soft tissue sarcoma cell lines; test: Sensitivity of human soft tissue sarcoma cell lines to L-alanosine by MTAP status; format: cell-based; conditions: cells lacking MTAP activity
Source text: An examination of MTAP expression in ten human soft tissue sarcoma cell lines found MTAP not detectable in three of the ten cell lines. These three cell lines were greater than 10-fold more sensitive to L-alanosine than the cell lines containing MTAP. […] In vivo studies of L-alanosine+MMPR, as well as the addition of 6-AN, are being evaluated (82).
An examination of MTAP expression in ten human soft tissue sarcoma cell lines found MTAP not detectable in four of the ten cell lines. These four cell lines were sensitive to L-alanosine.

[5] = tested on: 1st passage tumor transplants of CD8F1 spontaneous breast tumors; test: Effect of MMPR + 6-AN + PALA on tumor ATP pools in CD8F1 mice; format: in vivo; set-up: tumor ATP levels 48 hours after treatment, % of normal (saline-treated control tumors) / 6 HR % Saline Control / 24 HR % Saline Control / 48 HR % Saline Control / 72HR % Saline Control / 6 HW % Saline Control: concentration or dose not given beside the values; conditions: for tumor ATP levels 48 hours after treatment, % of normal (saline-treated control tumors): 48 hours after administration; for tumor ATP level, % of normal: murine breast tumors in vivo, time not stated in the sentence; for 6 HW % Saline Control: 6 hr; for 6 HR % Saline Control: tumor ATP 6 hr after i.p. injection
[6] = tested on: MDA-MB 468 human breast cancer xenografts; test: Taxotere with MAP or MAPAL in MDA-MB-468 human breast cancer xenografts; format: in vivo; conditions: pyruvate for 1 day on the 5th day after each ATP-depleting treatment
[7] = tested on: spontaneous, autochthonous CD8F1 breast tumors; test: Therapy of mice bearing spontaneous, autochthonous CD8F1 breast tumors; format: in vivo
Source text: Anticancer Effect of MAP Alone in Spontaneous Murine Breast Tumors (Ref. 39)—Table 3 records that MAP produced a partial tumor regression rate of 38% in mice bearing large spontaneous, autochthonous breast tumors. There were 24 partial tumor regressions in 64 surviving mice with acceptable toxicity (4% mortality, 3 deaths in 67 treated mice). Spontaneous regression of these spontaneous breast cancers has never been observed.

[8] = tested on: patients with disseminated cancer; conditions: cited from earlier work
tumor ATP levels = conditions: cited from earlier work
[9] = Exp.3069F, tumors averaged 80 mg at start, three i.p. courses at 10-11 day intervals, after third course
[10] = 69 days after initiating therapy, listed as TXT20
[11] = 69 days after initiating therapy, listed as Taxotere40
[12] = seventh series copy of Table 1, 24 hr
[13] = seventh series copy of Table 1, 48 hr
[14] = seventh series copy of Table 1, 72 hr
[15] = tumor ATP 24 hr after i.p. injection, % of saline control
[16] = tumor ATP 48 hr after i.p. injection, % of saline control
[17] = tumor ATP 72 hr after i.p. injection, % of saline control

N[C@@H](Cc1ccc(N(CCCl)CCCl)cc1)C(=O)O [PAM, phenylalanine mustard]
Partial Regressions (%) ([1]; Table 6, MAP ± PAM): did not produce tumor regressions
enhancement of anticancer agent activity by co-administered MAP (in words) [2]: significantly enhance response rates

N.N.[Cl][Pt][Cl] [DDP, cisplatin]
% Weight Change ([1]; Exp.3069F, after third course): −18%
Dead/Total ([1]; Exp.3069F, after third course): 1/10
Regressions/Survivors ([1]; Exp.3069F, after third course): 0/9
Av. Tumor W't [1, 9]: 850 mg
effect on tumor growth / anticancer activity (in words) [1]: limited to inhibition of tumor growth
effect on tumor growth / anticancer activity (in words) ([1]; listed as cisplatin): significantly inhibited tumor growth
Regressions/Survivors (%) ([1]; pooled five experiments, MAP ± DDP, one week after third course): produced no partial (i.e., greater than 50% shrinkage of tumors), or complete response
MTD (maximum tolerated dose) of the agent alone ([1]; single agent, 10-11 day schedule, tumor-bearing CD8F1 mice): 7 mg/kg
enhancement of anticancer agent activity by co-administered MAP (in words) [2]: significantly enhance response rates

N[C@@H](CN(O)N=O)C(=O)O [L-alanosine]
cell growth, % of control (mouse lymphoma cells): 59%
intracellular tumor cell ATP pool, % of normal (control) (mouse lymphoma cells): 63%

CO[C@@]12[C@H](COC(N)=O)C3=C(C(=O)C(C)=C(N)C3=O)N1C[C@@H]1N[C@@H]12 [mitomycin C]
enhancement of anticancer agent activity by co-administered MAP (in words) [2]: significantly enhance response rates

CC(=O)O[C@H]1C(=O)[C@@]2(C)[C@H]([C@H](OC(=O)c3ccccc3)[C@]3(O)C[C@H](OC(=O)[C@H](O)[C@@H](NC(=O)c4ccccc4)c4ccccc4)C(C)=C1C3(C)C)[C@]1(OC(C)=O)CO[C@@H]1C[C@@H]2O [Taxol, paclitaxel]
PR/survivors (%) ([1]; Table 5, MAP ± taxol): no tumor regressions
effect on tumor growth / anticancer activity (in words) [1]: statistically significant inhibition of tumor growth
MTD (in vivo): 80 mg/kg
enhancement of anticancer agent activity by co-administered MAP (in words) [2]: significantly enhance response rates

CC(=O)O[C@@]12CO[C@@H]1C[C@H](O)[C@@]1(C)C(=O)[C@H](O)C3=C(C)[C@@H](OC(=O)[C@H](O)[C@@H](NC(=O)OC(C)(C)C)c4ccccc4)C[C@@](O)([C@@H](OC(=O)c4ccccc4)[C@H]21)C3(C)C [Taxotere, taxotere]
enhancement of anticancer agent activity by co-administered MAP (in words) [2]: significantly enhance response rates
PR (partial tumor regression) [3, 10]: 0%
PR (partial tumor regression) [3, 11]: 60%
Mortality ([3]; 69 days after initiating therapy, every 2 weeks x 3, 10-11 mice per group): 0%
(CR) complete tumor regression [3, 10]: (0%)
(CR) complete tumor regression [3, 11]: (10%)
NR (no tumor regression) [3, 10]: 100%
NR (no tumor regression) [3, 11]: 40%
tumor regressions with the single agent ([3]; MDA-MB-468 tumor model described as very sensitive): 90-100%
tumor regrowth beginning, days after the third and last injection ([3]; full (MTD) dose Taxotere, Group 1): 41 days
% Tumors Progressing ([3]; treatment q 2 weeks x 3, progressing tumors larger than P.R. tumors and growing): 0%
% Partial Regressions ([3]; treatment q 2 weeks x 3): 100%
% Partial Regressions ([3]; treatment q 2 weeks x 3, listed as Taxotere40): 100%

COc1cccc2c1C(=O)c1c(O)c3c(c(O)c1C2=O)C[C@@](O)(C(=O)CO)C[C@@H]3O[C@H]1C[C@H](N)[C@H](O)[C@H](C)O1 [doxorubicin]
enhancement of anticancer agent activity by co-administered MAP (in words) [2]: significantly enhance response rates

CSc1ncnc2c1ncn2[C@@H]1O[C@H](CO)[C@@H](O)[C@H]1O [MMPR, 6-methylmercaptopurine riboside]
effect on tumor growth / anticancer activity (in words) [1]: tumor growth was inhibited
partial tumor regression (P.R.) rate [1]: no partial regressions
effect of adding MMPR to L-alanosine (in words) [4]: further enhanced the sensitivity of the cells lacking MTAP activity to L-alanosine
cell growth, % of control (mouse lymphoma cells): 25%
intracellular tumor cell ATP pool, % of normal (control) (mouse lymphoma cells): 49%
tumor ATP levels 48 hours after treatment, % of normal (saline-treated control tumors) [5]: 34%
tumor ATP level, % of normal [5]: 34%
6 HW % Saline Control ([5]; seventh series copy of Table 1): 47%
24 HR % Saline Control [5, 12]: 47%
48 HR % Saline Control [5, 13]: 34%
72HR % Saline Control [5, 14]: 127%
6 HR % Saline Control ([5]; % of saline control): 47%
24 HR % Saline Control [5, 15]: 47%
48 HR % Saline Control [5, 16]: 34%
72HR % Saline Control [5, 17]: 127%

CC(=O)C(=O)O [Pyruvate, pyruvate]
effect of pyruvate administration on treatment-induced weight loss / mortality [6]: diminishes the degree of weight loss
effect of pyruvate administration on treatment-induced weight loss / mortality ([6]; listed as pyruvate): Unacceptable mortality (e.g., 30%) is prevented

O=P1(N(CCCl)CCCl)NCCCO1 (stereo not drawn) [cyclophosphamide]
enhancement of anticancer agent activity by co-administered MAP (in words) [2]: significantly enhance response rates

O=C(O)C[C@H](NC(=O)CP(=O)(O)O)C(=O)O [PALA, N-(phosphonacetyl)-L-aspartic acid]
effect on tumor growth / anticancer activity (in words) [1]: not antitumor active; also recorded: does not have anticancer activity
effect on tumor ATP levels (in words) ([5]; low dose PALA): had no effect on ATP levels; also recorded: does not effect ATP depletion; also recorded: devoid of an ATP depleting effect; also recorded: does not affect ATP depletion; also recorded: neither reduces tumor ATP levels nor inhibits tumor growth

O=c1[nH]cc(F)c(=O)[nH]1 [FUra, 5-fluorouracil]
MTD (in vivo): 100 mg/kg
regressions of spontaneous autochthonous breast tumors, FUra alone at 75 mg/kg ([7]; 75 mg/kg): less than 5%
PR rate, FUra alone at its MTD of 100 mg/kg ([7]; 100 mg/kg): ≤ 20%
enhancement of anticancer agent activity by co-administered MAP (in words) [2]: significantly enhance response rates

COc1cc([C@@H]2c3cc4c(cc3[C@@H](O[C@@H]3O[C@@H]5CO[C@@H](C)O[C@H]5[C@H](O)[C@H]3O)[C@H]3COC(=O)[C@H]23)OCO4)cc(OC)c1O [etoposide]
enhancement of anticancer agent activity by co-administered MAP (in words) [2]: significantly enhance response rates

NC(=O)c1ccc(N)nc1 [6-AN, 6-aminonicotinamide]
% Weight Change ([1]; Exp.3069F, after third course): +6%
Dead/Total ([1]; Exp.3069F, after third course): 3/10
Regressions/Survivors ([1]; Exp.3069F, after third course): 0/7
Av. Tumor W't (mg) [1, 9]: 1,765 mg
effect on tumor growth / anticancer activity (in words) [1]: tumor growth was inhibited
partial tumor regression (P.R.) rate [1]: no partial regressions
tumor ATP levels 48 hours after treatment, % of normal (saline-treated control tumors) [5]: 69%
tumor ATP level, % of normal [5]: 75%
tumor ATP level, % of normal ([5]; listed as 6-Aminonicotinamide): 69%
6 HW % Saline Control ([5]; seventh series copy of Table 1): 77%
24 HR % Saline Control [5, 12]: 75%
48 HR % Saline Control [5, 13]: 69%
72HR % Saline Control [5, 14]: 169%
6 HR % Saline Control ([5]; % of saline control): 77%
24 HR % Saline Control [5, 15]: 75%
48 HR % Saline Control [5, 16]: 69%
72HR % Saline Control [5, 17]: 169%
dose of 6-AN determined to be safe in early clinical trials ([8]; for up to 28 consecutive days of treatment): 0.2 mg/kg/day
clinical forms of 6-AN toxicity ([8]; three Phase I trials, daily administration): at low dose a mixed B complex vitamin deficiency, and at high dose CNS toxicity; also recorded: a low dose mixed B complex vitamin deficiency, and a high dose-dependent CNS toxicity
toxicity of in vivo schedules (tumor ATP levels; 6-AN 10 mg/kg q 3 hours x 3 on days 1,3,5 or continuous infusion): too toxic
tumor ATP levels, % of normal (tumor ATP levels; single dose of 6-AN alone at 10 mg/kg, different tumor model): 75-80%
